Measurements published in publication PMC4517520 (Drug Design, Development and Therapy, 2015).
Like-named read-outs stand apart in the source and are kept apart here.

Key:
EGFR = settings: read-out: Potency [IC50], cited from earlier work
HER2 = settings: read-out: Potency [IC50]; PDB 3RCD; reference or ChEMBL geometric mean; cited from earlier work
[1] = molecular target: human EGFR cytoplasmic domain, dual T790M/L858R mutations (Homo sapiens, UniProt P00533, L858R/T790M); format: biochemical; settings: in vitro
MCF-7 cells = test: Cell proliferation assay; format: cell-based; settings: Homo sapiens, MCF7, 24 h, read-out: Cellular IC50 MCF-7
[2] = test system: H1975 (T790M/L858R) cells; test: Cell proliferation assay; format: cell-based; settings: Homo sapiens, NCI-H1975, 24 h, read-out: Cellular IC50 H1975 (T790M/L858R)
A431 (wild-type) cells = test: Cell proliferation assay; format: cell-based; settings: Homo sapiens, A-431, 24 h, read-out: Cellular IC50 A431 (wild-type)
HER4 = settings: read-out: Potency [IC50]; PDB 3BBT; reference or ChEMBL geometric mean; cited from earlier work

Chain of human EGFR cytoplasmic domain, dual T790M/L858R mutations (P00533 669-1210 T790M/L858R): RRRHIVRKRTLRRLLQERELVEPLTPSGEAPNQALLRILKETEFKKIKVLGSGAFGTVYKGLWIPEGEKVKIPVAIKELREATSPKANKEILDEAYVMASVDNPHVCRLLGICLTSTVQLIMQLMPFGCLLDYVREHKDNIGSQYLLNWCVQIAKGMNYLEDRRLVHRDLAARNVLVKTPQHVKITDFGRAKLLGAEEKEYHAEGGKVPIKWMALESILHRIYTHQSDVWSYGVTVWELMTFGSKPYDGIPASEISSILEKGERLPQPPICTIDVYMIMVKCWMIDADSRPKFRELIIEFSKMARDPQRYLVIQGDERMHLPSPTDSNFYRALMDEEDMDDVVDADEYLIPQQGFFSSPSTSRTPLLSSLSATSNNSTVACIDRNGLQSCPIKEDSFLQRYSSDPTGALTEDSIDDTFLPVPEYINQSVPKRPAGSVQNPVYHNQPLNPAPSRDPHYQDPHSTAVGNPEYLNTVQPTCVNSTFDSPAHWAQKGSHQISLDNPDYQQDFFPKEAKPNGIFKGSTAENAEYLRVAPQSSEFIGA

In the case of `CN(C)C/C=C/C(=O)Nc1cc2c(Nc3ccc(F)c(Cl)c3)ncnc2cc1O[C@H]1CCOC1` [0WM], the IC50 (EGFR; PDB 4G5J, reference or ChEMBL geometric mean) is listed as 0.0005 µM.

For `COc1cc2ncnc(Nc3ccc(F)c(Cl)c3)c2cc1NC(=O)/C=C/CN1CCCCC1` [1C9], the IC50 (EGFR; PDB 4I23, reference or ChEMBL geometric mean) is listed as 0.00812 µM.

For `CC(C)(O)CC(=O)NCCn1ccc2ncnc(Nc3ccc(Oc4cccc(C(F)(F)F)c4)c(Cl)c3)c21` [03P], the IC50 (HER2) is given as 0.017 µM and the IC50 (EGFR; PDB 3POZ, reference or ChEMBL geometric mean) is given as […].

For `CC(C)(O)CC(=O)NCCc1ccc2ncnc(Nc3ccc(Oc4cccc(C(F)(F)F)c4)c(Cl)c3)c2c1` [A-10, N-(2-(4-((3-Chloro-4-(3-(trifluoromethyl)phenoxy)phenyl)amino)quinazolin-6-yl)ethyl)-3-hydroxy-3-methylbutanamide], the “more potency against EGFR T790M than the two control molecules erlotinib and gefitinib” value [1] was “at least 30 fold”, the IC50 (MCF-7 cells) was 0.094 µM and the IC50 [2] was 0.127 µM. It also gave an IC50 (A431 (wild-type) cells) of 0.041 µM.

In the case of `CCN1CCN(Cc2ccc(-c3cc4c(N[C@H](C)c5ccccc5)ncnc4[nH]3)cc2)CC1` [AEE], the IC50 (EGFR; PDB 2J6M, reference or ChEMBL geometric mean) is given as 0.0109 µM.

`C#Cc1cccc(Nc2ncnc3cc(OCCOC)c(OCCOC)cc23)c1` [Erlotinib, erlotinib] showed an IC50 (MCF-7 cells) of over 1 µM and an IC50 (A431 (wild-type) cells) of 0.062 µM.

For `COc1cc2ncnc(Nc3ccc(F)c(Cl)c3)c2cc1OCCCN1CCOCC1` [IRE], the IC50 (EGFR; PDB 2ITY, reference or ChEMBL geometric mean) is listed as 0.0535 µM.

In the case of `CN(C)CCC(=O)Nc1cccc(-c2c(-c3ccccc3)oc3ncnc(N[C@H](CO)c4ccccc4)c23)c1` [KJ8], the IC50 (EGFR; PDB 4JQ8, reference or ChEMBL geometric mean) is listed as 0.008 µM.

In the case of `OC[C@@H](Nc1ncnc2oc(-c3ccccc3)c(-c3ccccc3)c12)c1ccccc1` [KJQ], the IC50 (EGFR; PDB 4JQ7, reference or ChEMBL geometric mean) is given as 0.393 µM.

In the case of `CN(C)CCCC(=O)Nc1cccc(-c2c(-c3ccccc3)oc3ncnc(N[C@H](CO)c4ccccc4)c23)c1` [KJV], the IC50 (EGFR; PDB 4JRV, reference or ChEMBL geometric mean) is given as 0.029 µM.
